Test results: article PMC11730311 (Scientific Reports, 2025)
Starred links: 1 amine or outer side, 2 acyl side, 3 side chain; linkers in the order of their positions; H or OH if unused. Residues, ends and D or L forms follow the SMILES beside them. Groups on a side chain read outwards from the residue. No end group written: not given here. *: point of attachment. C20 diacid = O=C(O)CCCCCCCCCCCCCCCCCCC(=O)*; γGlu = O=C(O)[C@H](CCC(=O)[*:2])N[*:1]

Tests used:
[1] = target: human calcitonin gene-related peptide receptor (hCGRP-R) (Homo sapiens, UniProt O60894+Q16602); assay: cell-based
[2] = Pharmacokinetic pilot study, plasma exposure after IV dosing; type: in vivo, mouse; conditions: for half-life: male, NMRI, mouse, plasma, iv, 700 nmol/kg

Sequence of human calcitonin gene-related peptide receptor (hCGRP-R) (Q16602 23-461): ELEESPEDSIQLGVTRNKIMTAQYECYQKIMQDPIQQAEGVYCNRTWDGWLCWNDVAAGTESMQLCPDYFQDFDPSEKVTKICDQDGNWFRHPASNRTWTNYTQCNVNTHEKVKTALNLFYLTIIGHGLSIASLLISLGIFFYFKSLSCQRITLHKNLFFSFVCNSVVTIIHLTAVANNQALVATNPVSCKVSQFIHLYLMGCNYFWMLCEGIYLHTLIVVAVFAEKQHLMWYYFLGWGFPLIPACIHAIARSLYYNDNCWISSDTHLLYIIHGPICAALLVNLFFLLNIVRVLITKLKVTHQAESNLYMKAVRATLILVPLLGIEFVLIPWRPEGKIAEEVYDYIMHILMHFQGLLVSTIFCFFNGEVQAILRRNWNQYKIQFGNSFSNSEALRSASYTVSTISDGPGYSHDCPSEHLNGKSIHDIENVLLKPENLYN
Sequence of human calcitonin gene-related peptide receptor (hCGRP-R) (O60894 27-148): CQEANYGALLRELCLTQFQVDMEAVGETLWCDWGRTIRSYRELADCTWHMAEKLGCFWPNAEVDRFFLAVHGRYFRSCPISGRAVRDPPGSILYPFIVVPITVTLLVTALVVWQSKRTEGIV

| Kb [1] | Compound | half-life [2] | difference in half-life versus hαCGRP8-37N25K-C20DA-γGlu ([2]; male NMRI mice, IV) |
| --- | --- | --- | --- |
| 6.76 nM | CC(C)C[C@H](NC(=O)CNC(=O)[C@H](C)NC(=O)[C@H](CC(C)C)NC(=O)[C@H](CCCNC(=N)N)NC(=O)[C@H](Cc1c[nH]cn1)NC(=O)[C@@H](NC(=O)[C@@H](N)C(C)C)[C@@H](C)O)C(=O)N[C@@H](CC(C)C)C(=O)N[C@@H](CO)C(=O)N[C@@H](CCCNC(=N)N)C(=O)N[C@@H](CO)C(=O)NCC(=O)NCC(=O)N[C@H](C(=O)N[C@H](C(=O)N[C@@H](CCCCN)C(=O)N[C@@H](CCCCNC(=O)CC[C@H](NC(=O)CCCCCCCCCCCCCCCCCCC(=O)O)C(=O)O)C(=O)N[C@@H](CC(N)=O)C(=O)N[C@@H](Cc1ccccc1)C(=O)N[C@H](C(=O)N1CCC[C@H]1C(=O)N[C@H](C(=O)N[C@@H](CC(N)=O)C(=O)N[C@H](C(=O)NCC(=O)N[C@@H](CO)C(=O)N[C@@H](CCCCN)C(=O)N[C@@H](CO)C(=O)N[C@@H](Cc1ccccc1)C(N)=O)C(C)C)[C@@H](C)O)C(C)C)C(C)C)C(C)C [hαCGRP8-37A36S, N25K-C20DA-γGlu] (H-VTHRLAGLLSRSGGVVKK([γGlu-C20 diacid])NFVPTNVGSKSF-NH2) |  |  |
| 1.66 nM | VTHRLAGLLSRSGGVVKNNFVPTNVGSKSF-NH2 [hαCGRP8-37A36S] |  |  |
|  | CC(C)C[C@H](NC(=O)CNC(=O)[C@H](C)NC(=O)[C@H](CC(C)C)NC(=O)[C@H](CCCNC(=N)N)NC(=O)[C@H](Cc1c[nH]cn1)NC(=O)[C@@H](NC(=O)[C@@H](N)C(C)C)[C@@H](C)O)C(=O)N[C@@H](CC(C)C)C(=O)N[C@@H](CO)C(=O)N[C@@H](CCCNC(=N)N)C(=O)N[C@@H](CCCCNC(=O)CC[C@H](NC(=O)CCCCCCCCCCCCCCCCCCC(=O)O)C(=O)O)C(=O)NCC(=O)NCC(=O)N[C@H](C(=O)N[C@H](C(=O)N[C@@H](CCCCN)C(=O)N[C@@H](CC(N)=O)C(=O)N[C@@H](CC(N)=O)C(=O)N[C@@H](Cc1ccccc1)C(=O)N[C@H](C(=O)N1CCC[C@H]1C(=O)N[C@H](C(=O)N[C@@H](CC(N)=O)C(=O)N[C@H](C(=O)NCC(=O)N[C@@H](CO)C(=O)N[C@@H](CCCCN)C(=O)N[C@@H](C)C(=O)N[C@@H](Cc1ccccc1)C(N)=O)C(C)C)[C@@H](C)O)C(C)C)C(C)C)C(C)C [S19K-C20DA-γGlu] (H-VTHRLAGLLSRK([γGlu-C20 diacid])GGVVKNNFVPTNVGSKAF-NH2) | 13.7 h | ~ 6 h |
|  | CC(C)C[C@H](NC(=O)CNC(=O)[C@H](C)NC(=O)[C@H](CC(C)C)NC(=O)[C@H](CCCNC(=N)N)NC(=O)[C@H](Cc1c[nH]cn1)NC(=O)[C@@H](NC(=O)[C@@H](N)C(C)C)[C@@H](C)O)C(=O)N[C@@H](CC(C)C)C(=O)N[C@@H](CCCCNC(=O)CC[C@H](NC(=O)CCCCCCCCCCCCCCCCCCC(=O)O)C(=O)O)C(=O)N[C@@H](CCCNC(=N)N)C(=O)N[C@@H](CO)C(=O)NCC(=O)NCC(=O)N[C@H](C(=O)N[C@H](C(=O)N[C@@H](CCCCN)C(=O)N[C@@H](CC(N)=O)C(=O)N[C@@H](CC(N)=O)C(=O)N[C@@H](Cc1ccccc1)C(=O)N[C@H](C(=O)N1CCC[C@H]1C(=O)N[C@H](C(=O)N[C@@H](CC(N)=O)C(=O)N[C@H](C(=O)NCC(=O)N[C@@H](CO)C(=O)N[C@@H](CCCCN)C(=O)N[C@@H](C)C(=O)N[C@@H](Cc1ccccc1)C(N)=O)C(C)C)[C@@H](C)O)C(C)C)C(C)C)C(C)C [S17K-C20DA-γGlu] (H-VTHRLAGLLK([γGlu-C20 diacid])RSGGVVKNNFVPTNVGSKAF-NH2) | 12.3 h |  |
|  | CC(C)C[C@H](NC(=O)CNC(=O)[C@H](C)NC(=O)[C@H](CC(C)C)NC(=O)[C@H](CCCNC(=N)N)NC(=O)[C@H](Cc1c[nH]cn1)NC(=O)[C@@H](NC(=O)[C@@H](N)C(C)C)[C@@H](C)O)C(=O)N[C@@H](CC(C)C)C(=O)N[C@@H](CO)C(=O)N[C@@H](CCCNC(=N)N)C(=O)N[C@@H](CO)C(=O)N[C@@H](CCCCNC(=O)CC[C@H](NC(=O)CCCCCCCCCCCCCCCCCCC(=O)O)C(=O)O)C(=O)NCC(=O)N[C@H](C(=O)N[C@H](C(=O)N[C@@H](CCCCN)C(=O)N[C@@H](CC(N)=O)C(=O)N[C@@H](CC(N)=O)C(=O)N[C@@H](Cc1ccccc1)C(=O)N[C@H](C(=O)N1CCC[C@H]1C(=O)N[C@H](C(=O)N[C@@H](CC(N)=O)C(=O)N[C@H](C(=O)NCC(=O)N[C@@H](CO)C(=O)N[C@@H](CCCCN)C(=O)N[C@@H](C)C(=O)N[C@@H](Cc1ccccc1)C(N)=O)C(C)C)[C@@H](C)O)C(C)C)C(C)C)C(C)C [G20K-C20DA-γGlu] (H-VTHRLAGLLSRSK([γGlu-C20 diacid])GVVKNNFVPTNVGSKAF-NH2) | 7.5 h |  |
|  | CC(C)C[C@H](NC(=O)[C@H](CCCNC(=N)N)NC(=O)[C@H](Cc1c[nH]cn1)NC(=O)[C@@H](NC(=O)[C@@H](N)C(C)C)[C@@H](C)O)C(=O)N[C@@H](C)C(=O)N[C@@H](CCCCNC(=O)CC[C@H](NC(=O)CCCCCCCCCCCCCCCCCCC(=O)O)C(=O)O)C(=O)N[C@@H](CC(C)C)C(=O)N[C@@H](CC(C)C)C(=O)N[C@@H](CO)C(=O)N[C@@H](CCCNC(=N)N)C(=O)N[C@@H](CO)C(=O)NCC(=O)NCC(=O)N[C@H](C(=O)N[C@H](C(=O)N[C@@H](CCCCN)C(=O)N[C@@H](CC(N)=O)C(=O)N[C@@H](CC(N)=O)C(=O)N[C@@H](Cc1ccccc1)C(=O)N[C@H](C(=O)N1CCC[C@H]1C(=O)N[C@H](C(=O)N[C@@H](CC(N)=O)C(=O)N[C@H](C(=O)NCC(=O)N[C@@H](CO)C(=O)N[C@@H](CCCCN)C(=O)N[C@@H](C)C(=O)N[C@@H](Cc1ccccc1)C(N)=O)C(C)C)[C@@H](C)O)C(C)C)C(C)C)C(C)C [G14K-C20DA-γGlu] (H-VTHRLAK([γGlu-C20 diacid])LLSRSGGVVKNNFVPTNVGSKAF-NH2) | 10.1 h |  |

| Compound | Kb [1] | half-life [2] | difference in half-life versus hαCGRP8-37N25K-C20DA-γGlu ([2]; male NMRI mice, IV) |
| --- | --- | --- | --- |
| CC(C)C[C@H](NC(=O)CNC(=O)[C@H](C)NC(=O)[C@H](CC(C)C)NC(=O)[C@H](CCCNC(=N)N)NC(=O)[C@H](Cc1c[nH]cn1)NC(=O)[C@@H](NC(=O)[C@@H](N)C(C)C)[C@@H](C)O)C(=O)N[C@@H](CC(C)C)C(=O)N[C@@H](CO)C(=O)N[C@@H](CCCNC(=N)N)C(=O)N[C@@H](CO)C(=O)NCC(=O)NCC(=O)N[C@H](C(=O)N[C@H](C(=O)N[C@@H](CCCCN)C(=O)N[C@@H](CCCCNC(=O)CC[C@H](NC(=O)CCCCCCCCCCCCCCCCCCC(=O)O)C(=O)O)C(=O)N[C@@H](CC(N)=O)C(=O)N[C@@H](Cc1ccccc1)C(=O)N[C@H](C(=O)N1CCC[C@H]1C(=O)N[C@H](C(=O)N[C@@H](CC(N)=O)C(=O)N[C@H](C(=O)NCC(=O)N[C@@H](CO)C(=O)N[C@@H](CCCCN)C(=O)N[C@@H](C)C(=O)N[C@@H](Cc1ccccc1)C(N)=O)C(C)C)[C@@H](C)O)C(C)C)C(C)C)C(C)C [hαCGRP8-37N25K-C20DA-γGlu] | 4.68 nM | 7.3 h |  |
